Measured values published in US20110319484A1, “NEUROPROTECTIVE COMPOUNDS” (Parque Tecnologico de Ciencias de la Salud, priority 2009, published 2011).

Key:
SK-N-MC cells = assay: Inhibition of camptothecin-induced apoptosis by flow cytometry (propidium iodide, sub-G1); assay type: cell-based, human; details: Homo sapiens, camptothecin 50 μM, 6 h, at 4 μg/ml, read-out: maximum inhibition of apoptosis relating to apoptosis caused by camptothecin (flow cytometry)
Experimental: To that end, the inhibition caused by the NST0005 compound of apoptosis caused by the treatment with camptothecin (Campt) was analyzed. The SK-N-MC cells, not exceeding 15 passages, were seeded on 6-well plates treated for adherent cells with a cell concentration of 8×10^5 cells/well; 2 wells of the plate were seeded for each condition of the assay.
After 24 h of cell incubation at 37° C. and 5% CO2 the cell treatments were performed with 2 ml of total volume for the following conditions: (i), control (culture medium); (ii), camptothecin [50 μM]; (iii) camptothecin [50 μM] and Z-VAD-fmk [50 μM] (Alexis), as positive control of inhibition; and (iv), 50 μM camptothecin with NST0005 at different concentrations [4, 10, 40 and 100 μg/ml].
The cells were incubated (at 37° C. and 5% CO2) with these treatments for 6 h, after which time they were pooled together with their culture medium and centrifuged at 300×g for 5 minutes. The medium was removed, a washing was performed with phosphate buffered saline (PBS) and they were fixed for 2 minutes with 500 μl of 70% ethanol at −20° C. […] After this time, they were analyzed by flow cytometry, comparing the fluorescence of the propidium iodine against the amount of DNA. The percentage of apoptosis was measured on the sub-G1 region of each of the conditions. […]

hippocampus of mice = assay: Neuroprotection in the hippocampus of mice after kainate (histopathology); assay type: in vivo, mice (FVB/NHan); details: KA 25 mg/kg i.p., NST0005 50 mg/kg i.p. daily, 2 days before and 7 days after KA
Experimental: All the animals included during the experimental process were 12-week old males of the FVB/NHan strain. The experiments were carried out strictly following the Guidance on the Operation of Animals (Scientific Procedures, Act. 1986). The animals had their respective quarantine period and were treated with maximum precaution to minimize possible contaminations for inoculations and handling.
Sixteen animals were used in this assay and the treatments were all carried out by intraperitoneal (i.p.) route with a volume of 100 μl, according to the following regimens: • i) PBS+PBS+PBS regimen: 4 animals were initially treated with PBS with a daily dose for 2 days, on the second day the animals were inoculated with a new dose of PBS and for the next 7 days with a daily dose of PBS. • ii) PBS+KA+PBS regimen: 6 animals were initially treated with PBS with a daily dose for 2 days, on the second day the animals were inoculated with a dose of kainate at 25 mg/kg and for the next 7 days with a daily dose of PBS. • iii) NST0005+KA+NST0005 regimen: 6 animals were initially treated with NST0005 with a daily dose of 50 mg/kg for 2 days, on the second day the animals were inoculated with a dose of kainate at 25 mg/kg and for the next 7 days with a daily dose of NST0005 at 50 mg/kg.
Once the treatment time of 7 days ended, the animals were sacrificed and the brains were dissected. The brain samples were processed and included in paraffin. Fluoro-Jade B® (FJB) fluorescent stain was used in 5 μm thick sections to analyze the neurodegeneration of the hippocampus.
Based on the neuroprotection results shown in the previous section, the inventors decided to investigate if the neuroprotective effect of NST0005 in the hippocampus of mice against the administration of kainate (KA) was accompanied by the protection of another sign of neuronal damage such as neuritic dystrophy. To that end, the same experimental scheme was used as in section 6.1. Once the treatment period of 7 days ended, the animals were sacrificed and the brains were dissected. The brain samples were processed and included in paraffin. Bright field immunohistochemistry of the microtubule-associated protein 2 (MAP2) was used in 5 μm thick sections to analyze the neuritic dystrophy of the hippocampus.
Based on the neuroprotection results shown in the previous sections, the inventors decided to investigate if the neuroprotective effect of NST0005 in the hippocampus of mice against the administration of kainate (KA) was accompanied by the inhibition of neuronal death by apoptosis. To that end, the same experimental scheme was used as in section 6.1. Once the treatment period of 7 days ended, the animals were sacrificed and the brains were dissected. The brain samples were processed and included in paraffin. […]

C[C@H]1C=C2C=C[C@H](C)[C@H](CC[C@@H]3C[C@@H](O)CC(=O)O3)[C@H]2[C@@H](OC(=O)C(C)(C)C)C1 [NST0005]
inhibition at 4 µg/mL (SK-N-MC cells): 17%
neuritic dystrophy in the hippocampus (MAP2) (hippocampus of mice): significantly prevents the neuritic dystrophy
neurodegeneration in the hippocampus (Fluoro-Jade B) (hippocampus of mice): completely protected against the neurodegeneration
neuronal death by apoptosis in the hippocampus (Acridine Orange) (hippocampus of mice): prevents neuronal damage, neurodegeneration and also neuronal death by apoptosis
neuronal death by necrosis in the hippocampus (hematoxylin and eosin) (hippocampus of mice): substantially prevents neuronal death by necrosis
